Assay results from patent US20240158430A1, “NOVEL COMPOUND OR SALT THEREOF, AND ANTITUMOR ACTIVATOR CONTAINING SAME AS ACTIVE INGREDIENT” (AKITA UNIVERSITY, priority 2021, published 2024).

Key:
Turbidity measurement = type: physicochemical
Method: The turbidity of various compounds was measured. The method is as follows. […] Curcumin was cloudy while GO-Y199 was clear. The solubility was measured with a turbidimeter (WZB-170 Portable Turbidimeter available from REX). The turbidity of the compound was corrected for concentration.
Subsequently, GO-Y206 and curcumin were adjusted to final concentrations of 1.25 μM and 5.00 μM, respectively, and their turbidities were measured.

[1] = tested on: breast cancer cell line HCC1395; assay: Cell growth inhibitory activity, HCC1395; type: cell-based
Method: [The source words this procedure for another cell line and reports this cell line under the same test.] (§1) The cell growth inhibitory activity against a colorectal cancer cell line HCT116 was measured. As an index of cell growth inhibitory activity, a concentration at which cell growth was inhibited by 50% as compared with a control (IC50) was used. The method is as follows. HCT116 was added to a 6-well plate by 5×10^4, compounds having various concentrations were added after 24 hours, and the number of cells was counted after 72 hours of culture. As the control, DMSO was used in an amount equal to the amount added in accordance with the addition concentration of the highest-concentration compound. The number of cells at each concentration relative to the control was expressed as a percentage.
(§2) The method is as described above.

[2] = tested on: pancreatic cancer cell line Panc-1; assay: Cell growth inhibitory activity, Panc-1; type: cell-based; conditions: Table 7
Method: [The source words this procedure for another cell line and reports this cell line under the same test.] as §1, §2

[3] = tested on: vascular endothelial cells HUVEC-R resistant to Ki8751; assay: Angiogenesis inhibitory activity, HUVEC-R; type: cell-based; conditions: Table 11; number of cells after 72 hours
Method: HUVEC-R was cultured in the presence of each compound using an EGMTM-2 Bullet Kit (Takara Bio Inc., Otsu, Japan), and the number of cells was measured after 72 hours. In addition, IC50 was determined from the results.

HCT116 [4] = assay: Cytocidal effect, HCT116; type: cell-based; conditions: 2 μM and 5 μM, cells counted after 48 and 72 hours
Method: The method is as follows. Each cell line was added to 6-well plate by 5×10^4, 2 μM and 5 μM of GO-Y199 were added after 24 hours, and the number of cells was counted after 48 hours and 72 hours.

NF-kB (p65) = assay: Influence on NF-kB, immunohistochemistry in HCT116; type: cell-based; conditions: 2 μM, 24 hours, control 96.8±1.1%
Method: The influence of GO-Y199 on NF-kB (p65) was investigated. The method is as follows. 3×10^6 cells of the HCT116 cell line were added to a 10-cm plate, 2 μM of GO-Y199 was added after 24 hours, the cells were collected after 24 hours, embedded in iPGell (GenOStaff), and fixed in formalin, paraffin blocks were then prepared, and immuno-histochemistry was performed with an anti-NF-kB (p65) antibody. In addition, 2 μM and 5 μM of GO-Y199 were added, lysates were collected after 24 hours, and an expression level of NF-kB (p65) was analyzed using an ELISA-plate (NF-kBp65 (pS536) SimpleStep-ELISA-kit, Abcam). An amount of protein was corrected by the absorbance of A 280 nm. The upper part of FIG. 14 indicates photographs of the control group and the GO-Y199 (2 μM)-added group after 24 hours. The lower part of FIG. 14 indicates results of the t-test of these groups after 24 hours. FIG. 15 indicates the comparison results of the NF-kB inhibitory effect of GO-Y199 (2 μM, 5 μM)-added groups with respect to the control group.

[5] = tested on: FOXP3-positive regulatory T cells; assay: Regulatory T cell inhibitory activity; type: cell-based, mouse; conditions: 0.3 μM; control 12.8%
Method: Naive CD4^+ T cells were collected from the spleen of a mouse using a CD4^+CD62L^hi T Cell Isolation Kit (Miltenyi Biotec). 0.5×10^6 cells/mL of the collected T cells were added to a RPMI 1640 medium to which penicillin/streptomycin (5,000 units/mL), 10% fetal bovine serum, and 50 μM of 2-mercaptoethanol were added. Subsequently, 1 μg/mL of anti-CD3 antibody (eBioscience) was added to the medium, and 1 μg/ml of anti-CD28 antibody (eBioscience) was further added thereto. The medium was then cultured at 37° C. for 3 days. Then, TGF-β1 (2 ng/mL) was added to the medium and cultured for 24 hours. After that, a FOXP3 Staining Buffer Kit (eBioscience) was used to fix the cells and treat cell membranes, and FOXP3 in the nuclei was stained. The stained cells were measured using a BD LSRFortessa™ (BD Bioscience) flow cytometer, and the obtained data was analyzed with FlowJo (Tree-Star version).

HCT116 [6] = assay: In vivo antitumor effect, HCT116 subcutaneous implant; conditions: nude mouse, HCT116 s.c.; 1 mg single tail vein injection; maximum diameter 4 days after; control 113.7±12.4%
Method: The in vivo antitumor effect of GO-Y199 was investigated. The method is as follows. HCT116 was implanted subcutaneously into a nude mouse. After tumor formation, 100 mM GO-Y199 in DMSO was dissolved in 100 μL of PBS and injected once into the tail vein of the mouse (corresponding to 1 mg of GO-Y199). As a control group, a DMSO-PBS solution having the equivalent concentration was injected once into the tail vein. The maximum diameter of the tumor was measured 4 days after the administration.

MSTO-211H cells = assay: Antitumor effect on malignant mesothelioma cells, animal model; type: in vivo, nude mice
Method: An animal model was used to investigate the antitumor effect of GO-Y199 on malignant mesothelioma cells. The method is as follows. 2.8×10^6 MSTO-211H cells were intraperitoneally transplanted into each of 5 nude mice. From Day 5, 43 μL of 100 mM GO-Y199 in DMSO was diluted to 500 μL with PBS and intraperitoneally administered to the mice (equivalent to 5 mg of GO-Y199). As a control group, a DMSO-PBS solution having the equivalent concentration was intraperitoneally administered to each of four nude mice to which MSTO-211H cells were intraperitoneally transplanted in the same manner. The administration was performed 5 times in total at intervals of 5 days. After 30 days, the mice were sacrificed, necropsied, and analyzed.

COCOc1cc(/C=C/C(=O)CC(SCCOCCOCCOCCOCc2cn([C@@H]3O[C@H](CO)[C@@H](O[C@@H]4O[C@H](CO)[C@H](O)[C@H](O)[C@H]4O)[C@H](O)[C@H]3O)nn2)c2cc(OCOC)cc(OCOC)c2)cc(OCOC)c1 (stereo partly drawn) [GO-Y199]
Turbidity/μm (Turbidity measurement; Table 1, average turbidity corrected for final concentration (1.7-170 μm, per compound)): 0.00041 NTU/μM | Relative Value (turbidity) (Turbidity measurement; Table 1, turbidity/μm relative to curcumin = 1): 0.0014 | Turbidity (Relative Value) (Turbidity measurement; Table 3, relative to curcumin = 1): 0.0014 | Ave Turbidity (NTU) (Turbidity measurement; final conc. 170 μm in DDW): 0.07 ± 0.05 NTU | appearance of solution (Turbidity measurement; final concentration 50 μM in distilled water or DMEM with 10% fetal bovine serum, from DMSO): clear | IC50 ([1]; Table 4, 72 hours): 720 nM | GO-Y199 vs GO-Y030 (IC50 comparison), HCC1395 ([1]; Table 5, ratio of IC50): 0.34 | IC50 [2]: 0.95 µM | IC50 [3]: 0.96 µM | cytocidal effect (HCT116 [4]): cytocidal effect | proportion of cells expressing NF-kB (p65) (NF-kB (p65)): 69.4±12.4% | induction ratio of FOXP3-positive regulatory T cells [5]: 2.22% | tumor augmentation, % of that before the administration (HCT116 [6]): 95.2±20.0% | animals with microscopic peritoneal disseminated lesions (MSTO-211H cells; 5 mg i.p., 5 times at intervals of 5 days, after 30 days, control 75%): 80% | size (maximum diameter) of disseminated nodule (MSTO-211H cells; 5 mg i.p., 5 times, after 30 days, control 6 to 13 mm): 5 mm | animals with disseminated nodule of maximum diameter exceeding 5 mm (MSTO-211H cells; 5 mg i.p., 5 times, after 30 days, control 100%): 20% | pathologic analysis, inside of the disseminated nodule (MSTO-211H cells; control filled with tumor cells): necrotic | tumor formation at the puncture site (MSTO-211H cells; not observed in control group): one animal
